Laboratory results from PubChem BioAssay (NCI).
Several values for one entry are separate records, joined by “and”; a condition that tells them apart may be missing. Identical values can stand only once.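 Each compound was tested at five concentrations against cells in 96-well plates for 48 hours. GI50 = concentration required for 50% inhibition of growth. TGI denotes the concentration required for complete inhibition of growth.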

Tests used:
Assay in all cases: inhibition of tumour cell growth, NCI panel, 48 h
EKVX NSCLC = tested on: EKVX NSCLC
SK-MEL-5 melanoma = tested on: SK-MEL-5 melanoma
SF-268 CNS = tested on: SF-268 CNS
CAKI-1 renal = tested on: CAKI-1 renal
ACHN renal = tested on: ACHN renal
OVCAR-8 ovarian = tested on: OVCAR-8 ovarian
MDA-MB-231 breast = tested on: MDA-MB-231 breast
SW-620 colon = tested on: SW-620 colon
A549 NSCLC = tested on: A549 NSCLC
SF-539 CNS = tested on: SF-539 CNS

Row | Compound | GI50 (EKVX NSCLC) | TGI (EKVX NSCLC) | GI50 (SK-MEL-5 melanoma) | TGI (SK-MEL-5 melanoma) | GI50 (SF-268 CNS) | TGI (SF-268 CNS) | GI50 (CAKI-1 renal) | TGI (CAKI-1 renal) | GI50 (ACHN renal) | TGI (ACHN renal) | GI50 (OVCAR-8 ovarian) | TGI (OVCAR-8 ovarian) | GI50 (MDA-MB-231 breast) | TGI (MDA-MB-231 breast) | GI50 (SW-620 colon) | TGI (SW-620 colon) | GI50 (A549 NSCLC) [µM] | TGI (A549 NSCLC) | GI50 (SF-539 CNS) | TGI (SF-539 CNS)
1 | O=C(Nc1ccc(Br)cc1)c1ccc(Cl)c(Cl)c1 | 1.99 µM | > 100 µM | 3.45 µM | > 100 µM | 4.51 µM | > 100 µM | 1.51 µM | 4.58 µM | 2.83 µM | > 28.6 µM | 4.2 µM | > 100 µM | 3.24 µM | > 100 µM | 3.59 µM | > 100 µM | 3.76 | > 100 µM | 4.01 µM | > 100 µM
2 | Cc1cn2c(/C=C3\C(=O)N(C)c4ccc(O)cc43)c(C)nc2s1 | 14.8 µM | > 100 µM | 3.45 µM | 57.6 µM | 9.08 µM | > 100 µM | 5.13 µM | 45.8 µM | 13.3 µM | > 100 µM | 11.3 µM | > 100 µM | 7.89 µM | > 100 µM | 3.67 µM | > 100 µM | 7.9 | > 100 µM | 5.58 µM | 28 µM
3 | COc1cc2c(c(OC)n1)[C@]1(O)[C@H](O)[C@H](CN(C)C)[C@@H](c3ccccc3)[C@]1(c1ccc(C#N)cc1)O2 | 0.0305 µM and 0.0237 µM | 2.81 µM and 2.54 µM | 0.0206 µM and 0.0196 µM | 0.0676 µM and 0.556 µM | 0.0249 µM and 0.0148 µM | 2.02 µM and 1.85 µM | 0.0276 µM and 0.0178 µM | 1.68 µM and 4.38 µM | < 0.0116 µM and 0.0117 µM | 0.148 µM and 0.558 µM | 0.0292 µM and 0.0316 µM | 10.1 µM and 11.5 µM | 0.0336 µM and 0.0242 µM | 1.72 µM and 1.48 µM | 0.0124 µM and < 0.01 µM | 3.37 µM and 10.4 µM | < 0.01 | 8.42 µM and 8.64 µM | 0.0142 µM and < 0.0116 µM | 0.0963 µM and 0.122 µM
4 | CC1CCC(=O)C(C(=O)CC2CC(=O)NC(=O)C2)C1 (stereo not drawn) | – | > 100 µM | – | > 100 µM | – | > 100 µM | – | > 100 µM | – | > 100 µM | – | > 100 µM | – | > 100 µM | – | > 100 µM | – | > 100 µM | – | > 100 µM
5 | COc1ccc2c(c1)C(C)Cc1c(ncnc1-n1c(C)nc3ccccc31)N2C (stereo not drawn) | 3.94 µM | 21.8 µM | 3.42 µM | 13 µM | 11.5 µM | 39.7 µM | 4.48 µM | 78.8 µM | 6.56 µM | 23.1 µM | 4.83 µM | 40.1 µM | 4.56 µM | 28.2 µM | 6.24 µM | 28 µM | 4.82 | 24.7 µM | 2.34 µM | 6.92 µM
6 | C[C@]12CC[C@H](O)C[C@H]1CC[C@@H]1[C@@H]2CC[C@]2(C)[C@@H](C3=CC(=O)OC3)CC[C@]12O | – | 0.433 µM | – | 0.205 µM | – | 0.226 µM | – | 0.18 µM | – | 0.825 µM | – | 1.07 µM | – | > 62.2 µM | – | 1.57 µM | – | 0.0456 µM | – | 0.16 µM
7 | COc1cc(C2=C(c3cn(C)c4ccccc34)COC2=O)cc(OC)c1OC | 0.121 µM | 5.42 µM | 0.0773 µM | 1.4 µM | 0.802 µM | 7.41 µM | 0.0531 µM | 3.42 µM | – | – | 0.338 µM | > 23.6 µM | 0.34 µM | > 100 µM | 0.0444 µM | > 100 µM | 0.1 | > 25.6 µM | 0.106 µM | 0.932 µM
